Earlier results, collected in patent US6765009B2, “1,4-Disubstituted benzo-fused compounds” (Boehringer Ingelheim Pharmaceuticals, Inc., priority 2001, dated 2004).

How the values were obtained:
septic shock syndrome = conditions: phase III human clinical trial
closed brain injury = conditions: experimental model
rheumatoid arthritis = conditions: Phase III clinical trial

Q: Which “mortality rate in patients with septic shock syndrome” value (septic shock syndrome) does the source give for “IL-1ra: "IL-1 receptor antagonist (IL-1ra) had been examined in human clinical trials" ... "(Antril, Amgen)"” here?
A: The value was “reduced the mortality rate”.

Q: Which “outcome of closed brain injury” value (closed brain injury) does the source give for `CCCCCCC(C)(C)c1cc(O)c2c(c1)OC(C)(C)[C@H]1CC=C(CO)C[C@H]21` [HU-211] here?
A: The value was “improve the outcome”.

Q: Which “efficacy in treatment of rheumatoid arthritis” value (rheumatoid arthritis) does the source give for Enbrel here?
A: The value was “demonstrated efficacy”.
